This is an account of results in patent publication US20240010635A1, “NOVEL INDIRUBIN DERIVATIVES HAVING HETEROBICYCLIC MOIETIES AND THE USE THEREOF” (priority 2022, published 2024).

SMILES strings stand for the structures.

The subject of one test is MV4-11. In words: Cell proliferation inhibition in AML cell line MV4-11 (Alamar Blue). Format: cell-based. Conditions: Homo sapiens, MV4-11, 72 hours, read-out: Cell proliferation inhibitory activity (GI50) MV4-11. The text has this: Cell proliferation inhibition experiments on acute myeloid leukemia (AML) cell lines tested FLT3 inhibitory activity using MV4-11, Molm-13, and Molm-14 cells, which are FLT3-ITD-expressed AML cell lines. The origin of all cell lines is human-derived cell lines, and the place of purchase and culture conditions of each cell line are as follows.
MV4-11 cells were purchased form the American Type Culture Collection (ATCC, Rockville, MD, USA, cat #CRL-9591), Molm-13 (DSMZ, cat #ACC554), Molm-14 (DSMZ, cat #ACC777), and then cultured in RPMI 1640 medium (Corning Co. 10-040-CV) supplemented with 10% fetal bovine serum, 1% penicillin/streptomycin and 4 mM L-glutamine (Life Technology, GrandIsland, NY).
Cell viability was evaluated by Resazurin redox-based analysis method with Alamar Blue Assay Kit (Invitrogen, USA). Specifically, for MV4-11, Molm-13 and Molm-14 cells, 8000 cells were plated on 384-well plates in 45 μl of medium. Compounds were treated with dimethyl sulfoxide (DMSO) as a negative control group. After 3 days (72 hours) of compound addition, 5 μl of Alamar Blue kit reagent was added to each well of 384-well plate and incubated at 37° C. for 2 hours in a humidified CO2 incubator. After incubation, fluorescence density (Flu) was measured at a wavelength of 544 nm and 590 nm using SpectraMax iD3 Multi Mode Microplate Reader (Molecular Devices, ID3-STD). GI50 was calculated by nonlinear regression using Prism version 5.01 (GraphPad, LaJolla, CA, USA).
A general note: The colour change of resazurin is a common sign of viable cells or microbes.

For a further test, the target named is T1, RET M918T (Homo sapiens, UniProt P07949, M918T).
T1 construct: Recombinant proteins containing RET wt, RET (M918T) and RET (V804L) domains were purchased from Promega; purchased Promega VA7274
T1 sequence (P07949 724-1016 M918T limits assumed): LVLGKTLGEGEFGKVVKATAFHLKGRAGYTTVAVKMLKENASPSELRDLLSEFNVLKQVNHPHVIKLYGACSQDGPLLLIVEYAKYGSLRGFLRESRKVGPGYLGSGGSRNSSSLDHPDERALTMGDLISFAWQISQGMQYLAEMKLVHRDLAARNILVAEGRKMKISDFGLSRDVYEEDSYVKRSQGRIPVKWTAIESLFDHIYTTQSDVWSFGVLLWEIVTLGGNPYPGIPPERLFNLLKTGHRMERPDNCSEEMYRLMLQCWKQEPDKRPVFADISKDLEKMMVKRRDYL
The experiment in a line: ADP-Glo kinase assay, RET M918T. It counts as biochemical. To be noted: recombinant RET (M918T), 120 min room temperature, read-out: Enzyme activity (IC50, nM) RET M918T. Here is the method:
(§1) Analysis performed in two steps. First, after kinase reaction, ADP-Glo™ reagent of equal volume was added to finish kinase reaction, and then the rest ATP was exhausted. Second, Kinase Detection Reagent was added to convert ADP to ATP and newly synthesized ATP was measured by luciferase/luciferin reaction at the same time. Generated light was measured by using luminometer. The measured luminescence amount can be applied to the ATP→ADP standard conversion curve to confirm the correlation with the ADP concentration.
Recombinant proteins containing RET wt, RET (M918T) and RET (V804L) domains were purchased from Promega (cat #V8061, cat #VA7274, cat #V4473), respectively. According to the manufacturer's instructions, optimal enzyme, ATP, and substrate concentration were established using ADP-Glo™ Kinase Assay (Promega, USA). […] Then, ADP-Glo™ Reagent (5 μl) was added and reacted at room temperature for further 40 min. Lastly, Kinase Detection Reagent (10 μl) was added and reacted for 30 min more at room temperature, and then phosphorylation of substrate peptide was measured by measuring luciferase signal (Integration time 0.5-1 second) using SpectraMax ID5 reader (Molecular Devices LLC., San Jose, CA, USA). IC50 was calculated by nonlinear regression using Prism version 5.01 (GrapghPad).
In general terms: ADP-Glo first removes unused ATP, then detects ADP through luciferase.

The next test addresses T2, FLT3 D835Y (Homo sapiens, UniProt P36888, D835Y).
T2 construct: Recombinant proteins containing the FLT3 and FLT3 (D835Y) domains were purchased from Promega; purchased Promega V4514
T2 sequence (P36888 610-943 D835Y limits assumed): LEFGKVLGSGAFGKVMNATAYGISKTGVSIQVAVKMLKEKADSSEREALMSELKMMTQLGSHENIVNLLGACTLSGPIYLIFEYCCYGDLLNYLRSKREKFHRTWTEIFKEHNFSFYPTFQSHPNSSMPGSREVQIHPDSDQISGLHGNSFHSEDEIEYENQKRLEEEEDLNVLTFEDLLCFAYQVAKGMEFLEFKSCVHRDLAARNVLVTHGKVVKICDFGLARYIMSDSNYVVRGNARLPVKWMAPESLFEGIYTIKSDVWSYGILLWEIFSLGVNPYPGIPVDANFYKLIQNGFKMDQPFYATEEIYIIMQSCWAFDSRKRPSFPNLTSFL
The experiment in a line: ADP-Glo kinase assay, FLT3 D835Y. Format: biochemical. Conditions: recombinant FLT3 (D835Y), 120 min room temperature, read-out: Enzyme activity (IC50, nM) FLT3 D835Y. As to the method: FLT3 activity inhibition was measured by ADP-Glo kinase assay (Promega, cat #V9101). ADP-Glo kinase analysis method is an emission ADP detect method which measures kinase activity by quantification of ADP amount produced during kinase reaction and provides uniform high-throughput screening method.
as §1
Recombinant proteins containing the FLT3 and FLT3 (D835Y) domains were purchased from Promega (cat #V4064, cat #V4514), respectively. According to the manufacturer's instructions, optimal enzyme, ATP, and substrate concentration were established using the ADP-Glo™ Kinase Assay (Promega, USA). Kinase reaction buffer 5× (200 mM Tris-HCl, pH 7.5, 100 mM MgCl2, 0.5 mg/ml BSA) was diluted and used, and the diluted compound of the present invention (5×, 1 μl), FLT3 enzyme or FLT3/D835Y enzyme (2.5×, 2 μl) and substrate/ATP mixture (2.5×, 2 μl), were mixed sequentially and reacted at room temperature for 120 minutes. Then, ADP-Glo™ Reagent (5 μl) was added and reacted for 40 min at room temperature. Finally, after adding a reagent for detection (Kinase Detection Reagent, 10 μl), reacting at room temperature for 30 min, and then phosphorylation of substrate peptide was measured by measuring luciferase signal (Integration time 0.5-1 second) using SpectraMax ID5 reader (Molecular Devices LLC., San Jose, CA, USA). IC50 was calculated by nonlinear regression using Prism version 5.01 (GrapghPad).

As a reminder, the IC50 is the point on the concentration scale where inhibition reaches its midpoint.

For the molecule `O=C1Nc2ccccc2/C1=C1/Nc2ccccc2/C1=N\OCCN1CC2(CNC2)C1` [Example 1, (2Z,3E)-3-((2-(2,6-diazaspiro[3.3]heptan-2-yl)ethoxy)imino)-[2,3′-biindolinylidene]-2′-one], the GI50 in the test on MV4-11 came out at 12.4 nM. For the same molecule, the IC50 at RET M918T turned out to be 0.449 nM; on FLT3 D835Y, 0.329 nM.
On to `O=C1Nc2ccccc2/C1=C1/Nc2ccccc2/C1=N\OCCN[C@H]1[C@@H]2CNC[C@@H]21` [Example 2, (2Z,3E)-3-((2-((1R,5S,6s)-3-azabicyclo[3.1.0]hexan-6-ylamino)ethoxy)imino)-[2,3′-biindolinylidene]-2′-one], for which the GI50 in the test with MV4-11 turned out to be 7.9 nM. In addition, the IC50 came to 1.25 nM on RET M918T and 0.524 nM on FLT3 D835Y.
In the case of `N[C@@H]1[C@H]2CN(CCO/N=C3/C(=C4/C(=O)Nc5ccccc54)Nc4ccccc43)C[C@@H]12` [Example 3, (2Z,3E)-3-((2-((1R,5S,6s)-6-amino-3-azabicyclo[3.1.0]hexan-3-yl)ethoxy)imino)-[2,3′-biindolinylidene]-2′-one], the GI50 in the test on MV4-11 stood at 90.6 nM. Moreover, the IC50 stood at 1.02 nM on RET M918T and 0.303 nM on FLT3 D835Y.
On the same counts, the results for `N[C@@H]1[C@H]2CN(CCO/N=C3/C(=C4/C(=O)Nc5ccc(F)cc54)Nc4ccccc43)C[C@@H]12` [Example 8, (2Z,3E)-3-((2-((1R,5S,6s)-6-amino-3-azabicyclo[3.1.0]hexan-3-yl)ethoxy)imino)-5′-fluoro-[2,3′-biindolinylidene]-2′-one] are 90.6 nM, 0.344 nM and 0.303 nM.
In the same order, the values of `O=C1Nc2ccc(F)cc2/C1=C1/Nc2ccccc2/C1=N\OCCN1CC2(CNC2)C1` [Example 6, (2Z,3E)-3-((2-(2,6-diazaspiro[3.3]heptan-2-yl)ethoxy)imino)-5′-fluoro-[2,3′-biindolinylidene]-2′-one] are 15.6 nM, 0.67 nM and 0.488 nM.
As for `O=C1Nc2ccc(F)cc2/C1=C1/Nc2ccccc2/C1=N\OCC(=O)N1C[C@H]2C[C@@H]1CN2` [Example 20, (2Z,3E)-3-((2-((1R,4R)-2,5-diazabicyclo[2.2.1]heptan-2-yl)-2-oxoethoxy)imino)-5′-fluoro-[2,3′-biindolinylidene]-2′-one], the GI50 in the test with MV4-11 stood at 1.32 nM. The values for the IC50 at RET M918T and at FLT3 D835Y were 1.19 nM and 0.271 nM, respectively.
With `O=C(CO/N=C1/C(=C2/C(=O)Nc3ccccc32)Nc2ccccc21)N[C@H]1[C@@H]2CNC[C@@H]21` [Example 16, N-((1R,5S,6s)-3-azabicyclo[3.1.0]hexan-6-yl)-2-(((E)-((Z)-2′-oxo-[2,3′-biindolinylidene]-3-ylidene)amino)oxy)acetamide], the GI50 with MV4-11 amounted to 5.04 nM. In addition, the IC50 was found to be 1.19 nM at RET M918T and 0.661 nM at FLT3 D835Y.
As to `O=C1Nc2ccccc2/C1=C1/Nc2ccccc2/C1=N\OCC(=O)N1C[C@H]2C[C@@H]1CN2` [Example 17, (2Z,3E)-3-((2-((1R,4R)-2,5-diazabicyclo[2.2.1]heptan-2-yl)-2-oxoethoxy)imino)-[2,3′-biindolinylidene]-2′-one], the GI50 with MV4-11 was 0.44 nM. The IC50 was 1.44 nM on RET M918T and 0.552 nM on FLT3 D835Y.
On the same counts, the results for `O=C(CO/N=C1/C(=C2/C(=O)Nc3ccc(F)cc32)Nc2ccccc21)N[C@H]1[C@@H]2CNC[C@@H]21` [Example 19, N-((1R,5S,6s)-3-azabicyclo[3.1.0]hexan-6-yl)-2-(((E)-((Z)-5′-fluoro-2′-oxo-[2,3′-biindolinylidene]-3-ylidene)amino)oxy)acetamide] are 6.78 nM, 1.39 nM and 0.511 nM.
On to `O=C1Nc2ccc(F)cc2/C1=C1/Nc2ccccc2/C1=N\OCCN[C@H]1[C@@H]2CNC[C@@H]21` [Example 7, (2Z,3E)-3-((2-((1R,5S,6s)-3-azabicyclo[3.1.0]hexan-6-ylamino)ethoxy)imino)-5′-fluoro-[2,3′-biindolinylidene]-2′-one], for which the GI50 in the test with MV4-11 was found to be 5.65 nM. In addition, the results for the IC50 at RET M918T and on FLT3 D835Y were 0.666 nM and 0.37 nM, respectively.
